Read-outs that look alike come from different tables or passages of the source.
Columns and labels:
[1] = Description: Each 50 ml water contained 11.4 mg lithium. Each aqueous solution was then shaken with 250 ml of chloroform/methanol (2/l by volume). The chloroform/methanol fraction was then separated off and evaporated to dryness under a stream of nitrogen. The mass of dry extract from the chloroform/methanol phase was weighed and its lithium content determined by flame photometry. The lithium content of the aqueous phase was also measured by flame photometry. • (B) 1 g of pure gamma-linolenic acid was dissolved in 10 ml of chloroform/methanol (2/l by volume). The resulting solution was then thoroughly shaken with 50 ml distilled water. The chloroform/methanol phase was then separated off and evaporated to dryness in a stream of nitrogen and the mass of dry extract was weighed.
[2] = Partition of lithium between water and chloroform/methanol (experiment A), lithium determined by flame photometry; format: physicochemical; conditions: 50 ml distilled water shaken with 250 ml chloroform/methanol (2/l by volume); range of five repeats
Description: Each 50 ml water contained 11.4 mg lithium.

[3] = 1 g in 10 ml chloroform/methanol (2/l by volume) shaken with 50 ml distilled water, range of five repeats
[4] = fatty acid salt, taken as equivalent to the percentage of lithium (experiment A)

| SMILES | Percentage of total fatty acid/ fatty acid salt* in: Aqueous phase [1, 3] | Percentage of total fatty acid/ fatty acid salt* in: Chloroform/methanol phase [1, 3] | Percentage of total lithium in: Chloroform/methanol phase [2] | solubility (physchem; alcohol, organic solvent or mixture) | solubility (physchem; water) | Percentage of total lithium in: Aqueous phase [2] | Percentage of total fatty acid/ fatty acid salt* in: Aqueous phase [1, 4] | Percentage of total fatty acid/ fatty acid salt* in: Chloroform/methanol phase [1, 4] |
| --- | --- | --- | --- | --- | --- | --- | --- | --- |
| CCCCC/C=C\C/C=C\C/C=C\CCCCC(=O)O [Gamma-linolenic acid, reference compound] | 2-9% | 91-98% | – | – | – | – | – | – |
| [Cl-].[Li+] [Lithium chloride, reference compound] | – | – | 1-5% | – | – | – | – | – |
| CCCCC/C=C\C/C=C\C/C=C\CCCCC(=O)[O-].[Li+] [Lithium gammalinolenate, Lithium gamma-linolenate] | – | – | 83-89% | > 30 mg/mL | > 30 mg/mL | 11-17% | 11-17% | 83-89% |
